13 molecules from patent publication US20180258404A1, “METHODS OF GENERATING NEPHRONS FROM HUMAN PLURIPOTENT STEM CELLS” (THE BRIGHAM AND WOMEN'S HOSPITAL, INC., priority 2015, published 2018) can be followed below.

Common to all, as to format: cell-based, human
The test system of one series is kidney organoids. The experiment in a line: Aristolochic acid toxicity and nephroprotection model in kidney organoids. The conditions noted are these: for PGC-1a expression (real-time quantitative PCR): AA alone or AA with cilostamide. The source says:
FIG. 34. […] Representative immunohistochemistry of aristolochic acid (AA) and tenofovir (TFV) treatments. Day 32 Kg-derived organoids. Al/AA treatments for 24H, while all TFV treatments for 48 H. Scale bars, 50 gm. Quantification determined as a percentage of DAP/+ cells. n=3, total DAP/+>1000 for each treatment. (*) indicates p-value<0.05.
FIG. 35. OAT1 inhibition by probenecid protects proximal tubules against AA toxicity. Representative immunohistochemistry of probenecid treatments with AA 2.5 gg/mL. Day 38 Kg-derived organoids. All treatments for 48 H. Scale bars, 50 um. Quantification determined as a percentage of DAPI+ cells. n=3, total DAPI+>1000 for each treatment. (*) indicates p-value<0.05.
FIG. 36. […] Representative immunohistochemistry of cilostamide and sildenafi/treatments with AA 2.5 gg/mL. Day 38 H9-derived organoids. All treatments for 48 H. Scale bars, 50 gm. Quantification determined as a percentage of DAPI+ cells. n=3, total DAPI+>1000 for each treatment. (*) indicates p-value<0.05.
FIG. 37. Real-time quantitative PCR mRNA was extracted from organoid samples and confirmed with Nanodrop. cDNA library Was generated by reverse transcription. AQP-I is prominently expressed on proximal tubules. PGC1-a is the master regulator of mitochondrial biogenesis.

The next series relates to NPCs in 3D culture. As to the kind of experiment: Growth factor and small molecule screening in 3D culture (LTL+ tubules). The note with it: added in 3D culture from day 10. On the procedure: FIG. 10. Spontaneous differentiation of SIX2+ cells into nephrons and growth factor screening in 3D culture. (a) Staining with PAX8 and LHX1 in hESCs on day 10 of the differentiation. hESCs were differentiated with CHIR 8 µM for 4 days, activn 10 ng/ml for 3 days, and FGF9 10 ng/ml for 3 days. […] Scale bar: 50 μm. (b) Brighfield imaging for hESCs on day 10 and 21 of the differentiation. FGF9 was withdrawn on day 10, and cells were cultured in the basic medium by day 21. Scale bars: 50 μm. (c) Brightfield and immunocytochemistry for LTL and NPHS1 in hESCs on day 28 of the differentiation. Scale bar: 50 μm. (d) The protocol for growth factor screening. Cells were replated to 3D culture on day 10, and the listed growth factors and small molecules were tested. (e) The number of LTL+ tubules in the organoids. […] (f) Brightfield imaging of 3D co-culture with an ureteric bud cell sphere. Scale bar: 100 μm. (g) Whole-mountstaining for LTL in the organoids on day 16. Scale bar: 100 μm. (h) Immunohistochemistry of the organoids on day 16. Scale bars: 50 μm. LTL: lotus tetragonolobus lectin. NPHS1: Nephrin.
To test whether the formation of epithelial structures could be facilitated by 3D culture conditions, on day 10, at the time of FGF9 withdrawal, the Inventors replated NPCs in ultra-low-attachment, round-bottom 96-well plates and cultured them for 1 week. NPCs formed 3D spherical aggregates, one per 96-well, in suspension culture.

Another series concerns H9 hESCs. The experiment in a line: Differentiation of hESCs into posterior intermediate mesoderm. How it is done:
(§1) hPSCs grown on Geltrex were washed once with PBS (Life Technologies, #10010-049) and dissociated into single cells with Accutase ([…] Technologies, #07920). Cells were then plated at a density of 2-2.4×10^4 (H9) or 1-1.4×10^4 (HDF, 2C) cells/cm^2 onto 24-well tissue culture plates (TPP, #92024) coated with 1% Geltrex in ReproFF2 supplemented with the ROCK inhibitor Y27632 (10 μM) (TOCRIS, #1254) and FGF2 (10 ng/ml). After 72 hours, cells (50% confluent) were briefly washed in PBS and then cultured in basic differentiation medium consisting of Advanced RPMI 1640 (Life Technologies, #12633-020) and 1X L-GlutaMAX (Life Technologies, #35050-061) supplemented with CHIR99021 (8-10 μM) (TOCRIS, #4423) for 4 days to induce late primitive streak cells Noggin (5 ng/ml) was also used for hiPSC differentiation in addition to CHIR (10 μM). To induce posterior intermediate mesoderm, cells were then cultured in Advanced RPMI+1X L-GlutaMAX+activin (10 ng/mL) (R&D, #338-AC-050) for 3 days. For induction of nephron progenitor cells, the media was then changed to Advanced RPMI+1X L-GlutaMAX+FGF9 (10 ng/ml) (R&D, #273-F9-025/CF) for 7 days. CHIR (3 μM) was added to the media from day 9 to 11 of differentiation to induce renal vesicles. On day 14, cells were switched to the basic differentiation medium and cultured for an additional 7 to 14 days (total of 21 to 28 days). The medium was replaced every 2 or 3 days. A variety of growth factors and small molecules were tested for differentiation.
PAX2 and LHX1 were not expressed (FIG. 1f), confirming that activin treatment of late primitive streak cells produced posterior and not anterior IM cells.
As the posterior primitive streak is induced by a BMP4 signal gradient, the Inventors hypothesized that CHIR treatment of HDF-α hiPSCs might induce endogenous BMP4 production that promotes differentiation into the posterior primitive streak and subsequently lateral plate mesoderm. […] Optimizing the protocol for individual cell lines based on their endogenous BMP4 production maximized the efficiency of generating posterior IM.

The next series has as its system HDF-α hiPSCs. The experiment in a line: Differentiation of hiPSCs into posterior intermediate mesoderm. The note with it: activin after CHIR plus noggin 5 ng/mL in the first step. On the procedure: as §1, with “The medium was replaced every 2 or 3 days. A variety of growth factors and small molecules were tested for differentiation.” left out

“Also recorded” adds a separate entry of the source.

Take `COc1cccc2c1cc([N+](=O)[O-])c1c(C(=O)O)cc3c(c12)OCO3` [AA, aristolochic acid]: the “PGC-1a expression (real-time quantitative PCR)” value with kidney organoids was “downregulated”. Moreover, the “kidney damage biomarkers by immunohistochemistry” value with kidney organoids (AA treatments for 24H, day 32 organoids) is “dose-dependent upregulation of kidney damage biomarkers”.

For `O=C(Nc1cccc2cccnc12)c1ccc(N2C(=O)[C@@H]3[C@H](C2=O)[C@@H]2C=C[C@H]3C2)cc1` [IWR-1], in the series with NPCs in 3D culture, the “number of LTL+ tubules in the organoids” value was “did not significantly increase the number of LTL+ tubules”.

Consider `CCCN(CCC)S(=O)(=O)c1ccc(C(=O)O)cc1` [Probenecid, probenecid], for which the “nephroprotection against AA” value in the series on kidney organoids (Probenecid 10 LIM with AA 2.5 gg/mL, 48 H, day 38 organoids) was “provided strongest nephroprotection against AA”. Moreover, the damage to organoids result in the series with kidney organoids (probenecid alone, 48 H, day 38 organoids) is “causes no damage to organoids”.

Turning to `NC(=O)c1ccc(-c2nc(-c3ccc4c(c3)OCO4)c(-c3ccccn3)[nH]2)cc1` [SB431542], the “number of LTL+ tubules in the organoids” value in the series with NPCs in 3D culture is given as “did not significantly increase the number of LTL+ tubules”.

Take `CN(C(=O)CCCOc1ccc2[nH]c(=O)ccc2c1)C1CCCCC1` [cilostamide]: in the series with kidney organoids, the “PGC-1a expression (real-time quantitative PCR)” value is given as “protected”. Further, the “nephroprotection against AA (real-time quantitative PCR, AQP-I)” value in the series on kidney organoids (cilostamide with AA) is on record as “dose-dependent nephroprotection against AA, significant preservation of proximal tubules”. The “mitochondrial biogenesis and protection” value in the series with kidney organoids (cilostamide with AA 2.5 gg/mL, 48 H, day 38 H9-derived organoids) is “increases mitochondrial biogenesis and protection in AA-toxicity model”.

Take “HGF: growth factor tested in 3D culture screening”: in the series with NPCs in 3D culture, the “number of LTL+ tubules in the organoids” value is given as “did not significantly increase the number of LTL+ tubules; also recorded: showed a tendency to increase LTL+ tubules”.

In the case of “IGF-1: growth factor tested in 3D culture screening”, in the series on NPCs in 3D culture, the “number of LTL+ tubules in the organoids” value was “did not significantly increase the number of LTL+ tubules”.

Turning to “JAG1: growth factor tested in 3D culture screening”, in the series on NPCs in 3D culture, the “number of LTL+ tubules in the organoids” value is on record as “did not significantly increase the number of LTL+ tubules”.

B1: WNT4: growth factor tested in 3D culture screening (protein, UniProt P56705 23-351, looked up)
Protein Wnt-4: SNWLYLAKLSSVGSISEEETCEKLKGLIQRQVQMCKRNLEVMDSVRRGAQLAIEECQYQFRNRRWNCSTLDSLPVFGKVVTQGTREAAFVYAISSAGVAFAVTRACSSGELEKCGCDRTVHGVSPQGFQWSGCSDNIAYGVAFSQSFVDVRERSKGASSSRALMNLHNNEAGRKAILTHMRVECKCHGVSGSCEVKTCWRAVPPFRQVGHALKEKFDGATEVEPRRVGSSRALVPRNAQFKPHTDEDLVYLEPSPDFCEQDMRSGVLGTRGRTCNKTSKAIDGCELLCCGRGFHTAQVELAERCSCKFHWCCFVKCRQCQRLVELHTCR
As to B1, the “number of LTL+ tubules in the organoids” value in the series with NPCs in 3D culture is listed as “did not significantly increase the number of LTL+ tubules”.

B2: activin: growth factor used to induce posterior intermediate mesoderm (protein, UniProt P08476 311-426, looked up)
Inhibin beta A chain: GLECDGKVNICCKKQFFVSFKDIGWNDWIIAPSGYHANYCEGECPSHIAGTSGSSLSFHSTVINHYRMRGHSPFANLKSCCVPTKLRPMSMLYYDDGQNIIKKDIQNMIVEECGCS
modifications: Inhibin beta A chain
notes: growth factor used to induce posterior intermediate mesoderm
Consider B2, for which, in the series with H9 hESCs (activin 10 ng/mL between days 4 and 7, after CHIR 8 μM for 4 days), the “efficiency of induction of WT1+HOXD11+ cells” value was around 90%. Moreover, the “efficiency of generation of WT1+HOXD11+ posterior IM cells” value in the series on HDF-α hiPSCs is given as 80-90%.

B3: mouse Wnt9b: growth factor tested in 3D culture screening (protein, UniProt O35468 24-359, looked up)
Protein Wnt-9b: AAYFGLTGREVLTPFPGLGTAAAPAQAGAHLKQCDLLKLSRRQKQLCRREPGLAETLRDAAHLGLLECQFQFRQERWNCSLEGRTGLLQRGFKETAFLYAVSAAALTHALARACSAGRMERCTCDDSPGLESRQAWQWGVCGDNLKYSTKFLSNFLGPKRGSKDLRARADAHNTHVGIKAVKSGLRTTCKCHGVSGSCAVRTCWKQLSPFRETGQVLKLRYDTAVKVSSATNEALGRLELWAPAKPGGPAKGLAPRPGDLVYMEDSPSFCRPSKYSPGTAGRVCSRDSSCSSLCCGRGYDTQSRMVVFSCHCQVQWCCYVECQQCAQQELVYTCKR
As for B3, the “number of LTL+ tubules in the organoids” value in the series on NPCs in 3D culture was “did not significantly increase the number of LTL+ tubules”.

B4: BMP4: growth factor; posteriorizes the primitive streak (protein, UniProt P12644 293-408, looked up)
Bone morphogenetic protein 4: SPKHHSQRARKKNKNCRRHSLYVDFSDVGWNDWIVAPPGYQAFYCHGDCPFPLADHLNSTNHAIVQTLVNSVNSSIPKACCVPTELSAISMLYLDEYDKVVLKNYQEMVVEGCGCR
Consider B4, for which the “FOXF1 expression at day 4” value in the series on H9 hESCs (BMP4 1 ng/mL added to CHIR) is reported as “resulted in FOXF1 expression at day 4”. Moreover, the “WT1 expression on day 7” value in the series with H9 hESCs (added to CHIR in the first step, hESCs) is listed as “suppression of WT1 expression on day 7”.

B5: BMP7: growth factor tested in 3D culture screening (protein, UniProt P18075 293-431, looked up)
Bone morphogenetic protein 7: STGSKQRSQNRSKTPKNQEALRMANVAENSSSDQRQACKKHELYVSFRDLGWQDWIIAPEGYAAYYCEGECAFPLNSYMNATNHAIVQTLVHFINPETVPKPCCAPTQLNAISVLYFDDSSNVILKKYRNMVVRACGCH
In the case of B5, the “number of LTL+ tubules in the organoids” value in the series on NPCs in 3D culture is listed as “did not significantly increase the number of LTL+ tubules”.
